Results: patent publication US11718637B2, “Prodrugs of 4′-C-substituted-2-halo-2′- deoxyadenosine nucleosides and methods of making and using the same” (Gilead Sciences, Inc., priority 2020, dated 2023)
pEC50: −log10 of the molar value. Values after ≈ are worked out from the molar mass of the structure shown. Like-named read-outs stand apart in the source and are kept apart here.

Assays:
[1] = tested on: HIV-1 (IIIB); assay: Antiviral assay in MT-4 cells; type: cell-based
Experimental: (§1) Compounds were tested in a high-throughput 384-well assay format for their ability to inhibit the replication of HIV-1 (IIIB) in MT-4 cells. Compounds were serially diluted (1:3) in DMSO on 384-well polypropylene plates and further diluted 200-fold into complete RPMI media (10% FBS, 1% P/S) using the Biotek Micro Flow and Labcyte ECHO acoustic dispenser. Each plate contained up to 8 test compounds, with negative (No Drug Control) and 5 μM AZT positive controls. MT-4 cells were pre-infected with 10 μL of either RPMI (mock-infected) or a fresh 1:250 dilution of HIV-1 IIIB concentrated virus stock. Infected and uninfected MT-4 cells were further diluted in complete RPMI media and added to each plate using a Micro Flow dispenser. After 5 days incubation in a humidified and temperature-controlled incubator (37° C.), Cell Titer Glo (Promega) was added to the assay plates and chemiluminescence read using an Envision plate-reader. EC50 values were defined as the compound concentration that causes a 50% decrease in luminescence signal, and were calculated using a sigmoidal dose-response model to generate curve fits.

[2] = Cytotoxicity assay in MT-4 cells; type: cell-based; conditions: human; uninfected MT-4 cells, 5 days incubation, Cell Titer Glo
Experimental: as §1, with “fits. Assays were performed as above except uninfected MT-4 cells were added to each well containing test compound. In addition, 10 μM puromycin was added to the last column of each assay plate to assess a base level of cytotoxicity.” for “fits.”

[3] = Kinetic solubility analysis (CLND); type: physicochemical; conditions: 24.2 °C, kinetic from dmso stock, from DMSO stocks, 1.0% DMSO, 24-hour incubation at ambient temperature, medium (0.1N HCl or PBS 7.4) not stated
Experimental: Kinetic Solubility Analysis (CLND)
0.1N HCl: Hydrochloric acid, 0.1N standardized solution.
1×PBS, 7.4: Phosphate Buffered Saline solution 10×, PBS 50 mL was added to approximately 450 mL HPLC grade H2O. The volume of the solution was then adjusted to 500 mL for a total dilution factor of 1:10 and a final PBS concentration of 1×. The pH of the final solution was measured and found to be 7.4.
Kinetic Solubility from DMSO Stocks: 100-fold dilutions of each DMSO stock solution were prepared in singleton by combining 3 μL of DMSO stock with 297 μL of the appropriate media in a Millipore solubility filter plate with a […] polycarbonate filter membrane using Hamilton Starlet liquid handling. The final DMSO concentration is 1.0% and maximum theoretical compound concentration is 100 μM (assuming stock concentration of 10 mM). The filter plate was sealed. Following 24-hour incubation at ambient temperature (24.2-27.5° C.), the samples were vacuum filtered and the filtrates were collected in a 96 well polypropylene plate for analysis. The collection plate was sealed for analysis.
Filtrates were injected into the nitrogen detector for quantification. The results are reported here in μM.
Calculation of Results: The equimolar nitrogen response of the detector was calibrated using standards which spanned the dynamic range of the instrument from […] nitrogen. The filtrates were quantified with respect to this calibration curve. The calculated solubility values were corrected for background nitrogen present in the DMSO and the media used to prepare the samples. All reported values for compounds containing adjacent nitrogen atoms in a ring structure should be increased by ˜25%. […] The solubility results presented assume that the samples were free of nitrogen containing impurities and were stable under the assay conditions.

[4] = Human immunodeficiency virus 1, MT4, 120 h, HIV-1 IIIB replication in MT-4 cells, 5 days incubation, Cell Titer Glo, read-out: EC50

Structure (SMILES) | pEC50 [1, 4] | solubility kinetic at 24 h [3] [µM] | pEC50 ([1]; Human immunodeficiency virus 1, IIIB, MT4, 120 h) | CC50 at 5 days [2] [nM]
C#C[C@]1(CO[P@@](=O)(N[C@@H](C)C(=O)OCC(CC)CC)Oc2ccccc2)O[C@@H](n2cnc3c(N)nc(F)nc32)C[C@@H]1O (single isomer, unassigned) [Compound 4] | – | – | 8.10 | –
C#C[C@]1(COC(=O)C(C)C)O[C@@H](n2cnc3c(N)nc(F)nc32)C[C@@H]1OC(=O)C(C)C [Compound 1, (2R,3S,5R)-5-(6-amino-2-fluoro-9H-purin-9-yl)-2-ethynyl-2-((isobutyryloxy)methyl)tetrahydrofuran-3-yl isobutyrate] | 8.15 | 6.6 (≈ 2.86 µg/mL) | – | 37300
C#C[C@]1(CO)O[C@@H](n2cnc3c(NC(=O)OCCCCCCCCCCCCCC)nc(F)nc32)C[C@@H]1O [Compound 2, Tetradecyl (9-((2R,4S,5R)-5-ethynyl-4-hydroxy-5-(hydroxymethyl)tetrahydrofuran-2-yl)-2-fluoro-9H-purin-6-yl)carbamate] | 7.15 | 1.2 (≈ 0.64 µg/mL) | – | 13400
C#C[C@]1(CO)O[C@@H](n2cnc3c(N)nc(F)nc32)C[C@@H]1OC(=O)c1ccccc1COC(=O)CCCCCCCCCCCCCCC [Compound 6, (2R,3S,5R)-5-(6-amino-2-fluoro-4,5-dihydro-9H-purin-9-yl)-2-ethynyl-2-(hydroxymethyl)tetrahydrofuran-3-yl 2-((palmitoyloxy)methyl)benzoate] | 7.54 | < 1 | – | > 50000
C#C[C@]1(COC(=O)c2ccccc2COC(=O)CCCCCCCCCCCCCCC)O[C@@H](n2cnc3c(N)nc(F)nc32)C[C@@H]1OC(=O)c1ccccc1COC(=O)CCCCCCCCCCCCCCC [Compound 7, (2R,3S,5R)-5-(6-amino-2-fluoro-9H-purin-9-yl)-2-ethynyl-2-(((2-((palmitoyloxy)methyl)benzoyl)oxy)methyl)tetrahydrofuran-3-yl 2-((palmitoyloxy)methyl)benzoate] | < 6.30 | 2 (≈ 2.08 µg/mL) | – | > 50000
C#C[C@]1(COC(=O)CCCCCCCCCCCCC)O[C@@H](n2cnc3c(N)nc(F)nc32)C[C@@H]1OC(=O)CCCCCCCCCCCCC [Compound 10, (2R,3S,5R)-5-(6-amino-2-fluoro-9H-purin-9-yl)-2-ethynyl-2-((tetradecanoyloxy)methyl)tetrahydrofuran-3-yl tetradecanoate] | < 6.30 | < 1 | – | > 50000
C#C[C@]1(COC(=O)OCCCCCCCCCCCC)O[C@@H](n2cnc3c(N)nc(F)nc32)C[C@@H]1OC(=O)OCCCCCCCCCCCC [Compound 13, ((2R,3S,5R)-5-(6-amino-2-fluoro-9H-purin-9-yl)-3-(((dodecyloxy)carbonyl)oxy)-2-ethynyltetrahydrofuran-2-yl)methyl dodecyl carbonate] | < 6.30 | < 1 | – | 5500
C#C[C@]1(COC(=O)CC(C)(C)c2c(C)cc(C)cc2OC(C)=O)O[C@@H](n2cnc3c(N)nc(F)nc32)C[C@@H]1O [Compound 14, ((2R,3S,5R)-5-(6-amino-2-fluoro-9H-purin-9-yl)-2-ethynyl-3-hydroxytetrahydrofuran-2-yl)methyl 3-(2-acetoxy-4,6-dimethylphenyl)-3-methylbutanoate] | 8.40 | 37 (≈ 20 µg/mL) | – | > 21600
C#C[C@]1(CO)O[C@@H](n2cnc3c(N)nc(F)nc32)C[C@@H]1OC(=O)CC(C)(C)c1c(C)cc(C)cc1OC(C)=O [Compound 15, (2R,3S,5R)-5-(6-amino-2-fluoro-9H-purin-9-yl)-2-ethynyl-2-(hydroxymethyl)tetrahydrofuran-3-yl 3-(2-acetoxy-4,6-dimethylphenyl)-3-methylbutanoate] | 8.52 | 25.1 (≈ 13.5 µg/mL) | – | 11800
C#C[C@]1(COC(=O)CC(C)(C)c2c(C)cc(C)cc2OC(C)=O)O[C@@H](n2cnc3c(N)nc(F)nc32)C[C@@H]1OC(=O)CC(C)(C)c1c(C)cc(C)cc1OC(C)=O [Compound 16, ((2R,3S,5R)-3-((3-(2-acetoxy-4,6-dimethylphenyl)-3-methylbutanoyl)oxy)-5-(6-amino-2-fluoro-9H-purin-9-yl)-2-ethynyltetrahydrofuran-2-yl)methyl 3-(2-acetoxy-4,6-dimethylphenyl)-3-methylbutanoate] | 8.00 | < 1 | – | 15700

Second part, led by results:

pEC50 [1, 4] | solubility kinetic at 24 h [3] [µM] | Structure (SMILES) | pEC50 ([1]; Human immunodeficiency virus 1, IIIB, MT4, 120 h) | CC50 at 5 days [2] [nM]
7.22 | – | C#C[C@]1(CO)O[C@@H](n2cnc3c(NC(=O)OCCCCCCCCCCCCCCCC)nc(F)nc32)C[C@@H]1O [Compound 3, Hexadecyl (9-((2R,4S,5R)-5-ethynyl-4-hydroxy-5-(hydroxymethyl)tetrahydrofuran-2-yl)-2-fluoro-9H-purin-6-yl)carbamate] | – | 11800
8.10 | < 1 | C#C[C@]1(COC(=O)c2ccccc2COC(=O)CCCCCCCCCCCCCCC)O[C@@H](n2cnc3c(N)nc(F)nc32)C[C@@H]1O [Compound 5] | – | > 50000
8.52 | < 1 | C#C[C@]1(COC(=O)CCCCCCCCCCCCC)O[C@@H](n2cnc3c(N)nc(F)nc32)C[C@@H]1O [Compound 8, ((2R,3S,5R)-5-(6-amino-2-fluoro-9H-purin-9-yl)-2-ethynyl-3-hydroxytetrahydrofuran-2-yl)methyl tetradecanoate] | – | > 20200
8.40 | < 1 | C#C[C@]1(CO)O[C@@H](n2cnc3c(N)nc(F)nc32)C[C@@H]1OC(=O)CCCCCCCCCCCCC [Compound 9, (2R,3S,5R)-5-(6-amino-2-fluoro-9H-purin-9-yl)-2-ethynyl-2-(hydroxymethyl)tetrahydrofuran-3-yl tetradecanoate] | – | > 23000
8.15 | < 1 | C#C[C@]1(COC(=O)CCCCCCCCCCCCCCCCC)O[C@@H](n2cnc3c(N)nc(F)nc32)C[C@@H]1O [Compound 11, ((2R,3S,5R)-5-(6-amino-2-fluoro-9H-purin-9-yl)-2-ethynyl-3-hydroxytetrahydrofuran-2-yl)methyl stearate] | – | > 41500
8.22 | < 1 | C#C[C@]1(COC(=O)OCCCCCCCCCCCC)O[C@@H](n2cnc3c(N)nc(F)nc32)C[C@@H]1O [Compound 12, ((2R,3S,5R)-5-(6-amino-2-fluoro-9H-purin-9-yl)-2-ethynyl-3-hydroxytetrahydrofuran-2-yl)methyl dodecyl carbonate] | – | 17000
8.15 | < 1 | C#C[C@]1(COC(=O)CCCCCC)O[C@@H](n2cnc3c(N)nc(F)nc32)C[C@@H]1OC(=O)CCCCCC [Compound 17, (2R,3S,5R)-5-(6-amino-2-fluoro-9H-purin-9-yl)-2-ethynyl-2-((heptanoyloxy)methyl)tetrahydrofuran-3-yl heptanoate] | – | > 20900
7.70 | 1.5 (≈ 0.945 µg/mL) | C#C[C@]1(COC(=O)CCCCCC)O[C@@H](n2cnc3c(NC(=O)CCCCCC)nc(F)nc32)C[C@@H]1OC(=O)CCCCCC [Compound 18, (2R,3S,5R)-2-ethynyl-5-(2-fluoro-6-heptanamido-9H-purin-9-yl)-2-((heptanoyloxy)methyl)tetrahydrofuran-3-yl heptanoate-3-yl 2-((palmitoyloxy)methyl)benzoate] | – | > 10100
